In patent US20240158412A1 (Faxian Therapeutics, LLC, priority 2021, published 2024) one finds IC50 data, which are given here for 15 compounds.

pIC50: −log10 of the molar value.
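Also: fluorescence intensity readout of USP7 enzymatic activity, reaction incubated 90 min at room temperature.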

The target in this experiment is USP7 (Homo sapiens, UniProt Q93009). Put plainly: biochemical.
Chain of USP7 (Q93009 whole entry): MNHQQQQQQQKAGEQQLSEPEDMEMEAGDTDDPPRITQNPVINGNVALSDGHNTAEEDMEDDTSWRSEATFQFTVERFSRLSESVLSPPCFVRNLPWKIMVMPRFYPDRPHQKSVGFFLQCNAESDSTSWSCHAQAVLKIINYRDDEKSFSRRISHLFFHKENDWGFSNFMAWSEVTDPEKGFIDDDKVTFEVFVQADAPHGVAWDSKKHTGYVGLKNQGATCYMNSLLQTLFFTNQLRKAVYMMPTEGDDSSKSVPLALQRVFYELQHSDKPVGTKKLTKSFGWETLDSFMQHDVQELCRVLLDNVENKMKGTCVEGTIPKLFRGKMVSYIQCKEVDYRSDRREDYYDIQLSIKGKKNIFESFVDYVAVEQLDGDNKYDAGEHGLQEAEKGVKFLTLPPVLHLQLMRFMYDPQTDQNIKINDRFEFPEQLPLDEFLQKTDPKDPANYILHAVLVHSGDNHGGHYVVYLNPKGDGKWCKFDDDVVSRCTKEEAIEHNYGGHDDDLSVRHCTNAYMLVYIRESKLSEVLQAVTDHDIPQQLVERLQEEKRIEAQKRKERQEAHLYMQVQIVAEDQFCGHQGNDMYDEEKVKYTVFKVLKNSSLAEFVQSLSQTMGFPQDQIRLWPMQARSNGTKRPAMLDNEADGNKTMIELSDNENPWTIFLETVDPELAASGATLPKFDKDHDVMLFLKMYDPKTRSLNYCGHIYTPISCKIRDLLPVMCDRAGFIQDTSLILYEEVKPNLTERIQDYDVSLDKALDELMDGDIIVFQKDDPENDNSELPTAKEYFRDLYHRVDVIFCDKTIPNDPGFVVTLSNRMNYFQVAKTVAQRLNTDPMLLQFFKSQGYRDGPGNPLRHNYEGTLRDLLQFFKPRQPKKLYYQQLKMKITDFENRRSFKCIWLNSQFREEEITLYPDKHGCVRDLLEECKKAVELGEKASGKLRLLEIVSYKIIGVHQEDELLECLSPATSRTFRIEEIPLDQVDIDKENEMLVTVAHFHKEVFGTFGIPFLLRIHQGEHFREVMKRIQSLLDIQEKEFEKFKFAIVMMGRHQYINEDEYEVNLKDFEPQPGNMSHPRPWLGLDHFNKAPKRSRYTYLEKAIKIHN
Experimental: Example A. Biochemical Assay of USP7 Inhibitor Potency (IC50)
Fluorescence intensity assay of USP7 activity in the presence USP7 inhibitors. Recombinant USP7 protein (catalogue number E-519) and the fluorescence substrate ubiquitin-rhodamine 110 (Rh110) (catalogue number U-555) were purchased from Boston Biochem (840 Memorial Drive, Cambridge, MA 02139). The reaction was carried out in buffer 20 mM HEPES, pH 7.3, 150 mM NaCl, 1 mM TCEP, 125 μg/mL BSA at room temperature in a black 384-well Microplate (Greiner, catalog number 781076).
Test compounds were dissolved in DMSO to make 50 mM stock solution. […] In wells of a black 384-well Microplate, 15 μl of 100 pM of USP7 enzyme was added to each well with pre-diluted compounds and incubated at room temperature for 30 minutes, followed by addition of 10 μl of ubiquitin-rhodamine 110 (Rh110) substrate to reach 160 nM final concentration. The reaction mixtures were incubated for additional 90 minutes at room temperature. The fluorescence signal of the digested substrate was measured on an EnVision microplate reader (PerkinElmer,), using excitation at 485 nm and emission at 535 nm. The IC50 values were calculated using XLfit software.
For the compound `N#Cc1cc2c(c(-c3ccnc4cc(CN5C(=O)C6CC6C5=O)sc34)c1)N([C@@H]1CNC3(CCCC3)C1)CCC2` (stereo partly drawn) [Example 178b, 8-(2-((2,4-dioxo-3-azabicyclo[3.1.0]hexan-3-yl)methyl)thieno[3,2-b]pyridin-7-yl)-1-((S)-1-azaspiro[4.4]nonan-3-yl)-1,2,3,4-tetrahydroquinoline-6-carbonitrile], the pIC50 is above 8.00.

`COC(=O)[C@]1(C)C[C@@H](N2CCCc3cc(Cl)cc(-c4ccnc5cc(CN6C(=O)CCC6=O)sc45)c32)CN1` (single isomer, unassigned) [Example 202]: the negative logarithm of the IC50 (pIC50) was 7.00 to 8.00. As to `CC(C)(O)[C@H]1C[C@H](N2CCCc3cc(Cl)cc(-c4ccnc5cc(CN6C(=O)CCC6=O)sc45)c32)CN1` [Example 189, 1-((7-(6-chloro-1-((3S,5R)-5-(2-hydroxypropan-2-yl)pyrrolidin-3-yl)-1,2,3,4-tetrahydroquinolin-8-yl)thieno[3,2-b]pyridin-2-yl)methyl)pyrrolidine-2,5-dione], the negative-log IC50 (pIC50) is above 8.00. To `O=C1C2CC2C(=O)N1Cc1cc2nccc(-c3cc(Cl)cc4c3N(C3CNC3)CCC4)c2s1` (stereo not drawn) [Example 13, 3-((7-(1-(azetidin-3-yl)-6-chloro-1,2,3,4-tetrahydroquinolin-8-yl)thieno[3,2-b]pyridin-2-yl)methyl)-3-azabicyclo[3.1.0]hexane-2,4-dione] belongs 7.00 to 8.00. As for `N#Cc1cc2c(c(-c3ccnc4cc(Cn5c(=O)ccn(CC(F)(F)F)c5=O)sc34)c1)N([C@H]1CCN(C3CCC3)C1)CCC2` [Example 86, (S)-1-(1-cyclobutylpyrrolidin-3-yl)-8-(2-((2,6-dioxo-3-(2,2,2-trifluoroethyl)-2,3-dihydropyrimidin-1(6H)-yl)methyl)thieno[3,2-b]pyridin-7-yl)-1,2,3,4-tetrahydroquinoline-6-carbonitrile], the figure is 7.00 to 8.00. Turning to `O=C1CCC(=O)N1Cc1cc2nccc(-c3cc(Cl)cc4c3N([C@H]3CCNC3)C[C@H]3C[C@@H]43)c2s1` (single isomer, unassigned) [Example 113d], the pIC50 was above 8.00. On to `O=C1CCC(=O)N1Cc1cc2nccc(-c3cc(Cl)cc4c3N(C3CNC3)C[C@@H]3C[C@H]43)c2s1` (single isomer, unassigned) [Example 43a], for which the pIC50 was below 6.00. Compound `O=C1CCC(=O)N1Cc1cc2nccc(-c3cc(Cl)cc4c3N(C3CO[C@@H](CO)C3)CCO4)c2s1` (single isomer, unassigned) [Example 227c] showed a pIC50 below 6.00.

In the case of `Cc1cnn(Cc2cc3nccc(-c4cc(C#N)cc5c4N(C4CNC(C)(C)C4)CCC5)c3s2)c(=O)c1` (single isomer, unassigned) [Example 120a], the negative logarithm of the IC50 (pIC50) is above 8.00. To `N#Cc1cc2c(c(-c3ccnc4cc(Cn5c(=O)ccn(CC(F)(F)F)c5=O)sc34)c1)N([C@H]1CCN([C@H]3CC[C@@H]3O)C1)CCC2` (single isomer, unassigned) [Example 107b] belongs 7.00 to 8.00; to `Cc1cnn(Cc2cc3nccc(-c4cc(Cl)cc5c4N([C@@H]4CNC6(CCC6)C4)C[C@H]4C[C@@H]54)c3s2)c(=O)c1` [Example 166, 2-((7-((1aS,7bR)-6-chloro-3-((S)-5-azaspiro[3.4]octan-7-yl)-1a,2,3,7b-tetrahydro-1H-cyclopropa[c]quinolin-4-yl)thieno[3,2-b]pyridin-2-yl)methyl)-5-methylpyridazin-3(2H)-one], above 8.00. For `O=C1CCC(=O)N1Cc1sc2c(-c3cc(Cl)cc4c3N(C3CCNC3)CCC4)ccnc2c1F` (single isomer, unassigned) [Example 108b], the pIC50 is 7.00 to 8.00. In the case of `O=C1C2CC2C(=O)N1Cc1cc2nccc(-c3cc(Cl)cc4c3N([C@@H]3CNC5(CCC5)C3)CCC4)c2s1` (stereo partly drawn) [Example 145, 3-((7-(6-chloro-1-((S)-5-azaspiro[3.4]octan-7-yl)-1,2,3,4-tetrahydroquinolin-8-yl)thieno[3,2-b]pyridin-2-yl)methyl)-3-azabicyclo[3.1.0]hexane-2,4-dione], the pIC50 is above 8.00. Regarding `O=C(c1cc2nccc(-c3cc(Cl)cc4c3N(C3CNC3)CCC4)c2s1)N1CCC1` [Example 38, Azetidin-1-yl-[7-[1-(azetidin-3-yl)-6-chloro-3,4-dihydro-2H-quinolin-8-yl]thieno[3,2-b]pyridin-2-yl]methanone], the pIC50 is below 6.00. To `O=C1CCC(=O)N1Cc1cc2nccc(-c3cc(Cl)cc4c3N([C@H]3CCCNC3)CCC4)c2s1` (single isomer, unassigned) [Example 51a] belongs above 8.00.
